Drawing on patent US11560400B2, “Salts of diphosphate phosphoramidate of nucleosides as anticancer compounds” (NuCana plc, priority 2017, dated 2023), this text covers inhibition and EC50 for five molecules.

Structures can show the parent of a compound that is named as a salt. Where only a bound is given, the exact number is not on record here.

The test system of one assay is OVCAR 3. As to the kind of experiment: CellTiterGlo cell viability assay, OVCAR 3. Type of assay: cell-based. The settings on record: Homo sapiens; for inhibition at 198 µM: OVCAR-3, 72 h, percentage inhibition at the highest concentration tested, read-out: Top Inhibit; for EC50: OVCAR 3, 72 h, Table 4 classes, read-out: Ab EC50. Here is the method:
(§1) A subset of compounds of the invention were assayed for their cytotoxic activity in an array of different solid tumours and haematological malignancies using the following assay.
(§2) In vitro viability assay were performed to assess the effects of compounds on cell viability in selected cell lines over 72 h using the CellTiterGlo (CTG, Promega-G7573) assay. The tests were performed in duplicates with treatment of compounds at 9 points, 3.16 folds titration in 96 well plates over ˜72 h. The compound starting concentrations were 198 μM. Cell viability assay using CellTiterGlo in 96-well plate were performed. Compound treatment 72 h, standard growth conditions, duplicates. Compounds were dissolved to 40 mM with thawed […]. Compounds were serially diluted at 3.16 fold in thawed DMSO, and warmed to 37° C. before being dissolved in media (2 μL+200 μL). After compounds were dissolved in media, media containing compounds were warmed to 37° C. in incubator and then compounds in media were added to cell plates (50 μL+50 μL) in duplicates. The compounds' final concentrations were from 198 μM to 19.8 nM. All compound solubilities were checked and recorded again, then the plates were transferred to CO2 tissue culture incubator immediately and incubated for 3 days. DMSO final concentration is 0.5%. The parent nucleoside in each case was tested as a comparator, as was an exemplary ProTide. The drugs of the ProTide class that were tested were as follows:
(§3) The following cell lines were tested and are referred to in the Table 1 below:
(§4) In Tables 2, 3 and 4, ‘Ab EC50’ refers to the absolute EC50 and ‘Top inhibit’ refers to the percentage inhibition achieved at the highest concentration tested.

For the next assay, the system named is RL. As to the kind of experiment: CellTiterGlo cell viability assay, RL. Type of assay: cell-based. The settings on record: Homo sapiens, 72 h; for EC50: Table 4 classes, read-out: Ab EC50; for inhibition at 198 µM: percentage inhibition at the highest concentration tested, read-out: Top Inh. As to the method: as §1, §2, §3, §4
(In general: In ATP-based viability assays light output follows the ATP content of the culture.)

For a further assay, the system named is HL-60. As to the kind of experiment: CellTiterGlo cell viability assay, HL-60. The class given is cell-based. The settings on record: Homo sapiens, HL-60, 72 h; for EC50: Table 4 classes, read-out: Ab EC50; for inhibition at 198 µM: percentage inhibition at the highest concentration tested, read-out: Top Inh. As to the method:
as §1, §2, §3, §4

The test system of another assay is MOLT-4. As to the kind of experiment: CellTiterGlo cell viability assay, MOLT-4. The class given is cell-based. The settings on record: Homo sapiens, MOLT-4, 72 h; for inhibition at 198 µM: percentage inhibition at the highest concentration tested, read-out: Top Inh; for EC50: Table 4 classes, read-out: Ab EC50. As to the method: as §1, §2, §3, §4
Another assay relates to MCF-7. As to the kind of experiment: CellTiterGlo cell viability assay, MCF-7. The class given is cell-based. The settings on record: Homo sapiens, MCF7, 72 h, MCF-7, 72 h; for inhibition at 198 µM: percentage inhibition at the highest concentration tested, read-out: Top Inhibit. As to the method: as §1, §2, §3, §4
The next assay has as its system K562. As to the kind of experiment: CellTiterGlo cell viability assay, K562. The class given is cell-based. The settings on record: Homo sapiens; for inhibition at 198 µM: K562, 72 h, percentage inhibition at the highest concentration tested, read-out: Top Inh; for EC50: K562, K 562, 72 h, Table 4 classes, read-out: Ab EC50. Here is the method:
as §1, §2, §3, §4

Another assay relates to RPMI-8226. As to the kind of experiment: CellTiterGlo cell viability assay, RPMI-8226. The class given is cell-based, Human. The settings on record: Homo sapiens, RPMI-8226, 72 h; for EC50: Table 4 classes, read-out: Ab EC50; for inhibition at 198 µM: percentage inhibition at the highest concentration tested, read-out: Top Inh. As to the method: as §1, §2, §3, §4
Another assay has as its system HepG2. As to the kind of experiment: CellTiterGlo cell viability assay, HepG2. The class given is cell-based. The settings on record: Homo sapiens, HepG2, 72 h; for EC50: Table 4 classes, read-out: Ab EC50; for inhibition at 198 µM: percentage inhibition at the highest concentration tested, read-out: Top Inhibit. Here is the method:
as §1, §2, §3, §4

Another assay deals with KG-1. As to the kind of experiment: CellTiterGlo cell viability assay, KG-1. Type of assay: cell-based. The settings on record: Homo sapiens, KG-1, 72 h; for EC50: Table 4 classes, read-out: Ab EC50; for inhibition at 198 µM: percentage inhibition at the highest concentration tested, read-out: Top Inhibit. Here is the method: as §1, §2, §3, §4
The test system of the next assay is HT29. As to the kind of experiment: CellTiterGlo cell viability assay, HT29. The class given is cell-based. The settings on record: Homo sapiens, HT-29, 72 h, HT29, 72 h; for EC50: Table 4 classes, read-out: Ab EC50; for inhibition at 198 µM: percentage inhibition at the highest concentration tested, read-out: Top Inhibit. Here is the method:
as §1, §2, §3, §4

A further assay deals with CCRF-CEM. As to the kind of experiment: CellTiterGlo cell viability assay, CCRF-CEM. The class given is cell-based. The settings on record: Homo sapiens, 72 h; for EC50: Table 4 classes, read-out: Ab EC50; for inhibition at 198 µM: percentage inhibition at the highest concentration tested, read-out: Top Inh. Here is the method: as §1, §2, §3, §4

The term EC50 denotes the midpoint of the concentration-response curve. Turning to `C[C@H](NP(=O)(Oc1cccc2c1CCCC2)OP(=O)(O)OC[C@H]1O[C@@H](n2cnc3c(N)nc(Cl)nc32)[C@H](F)C1O)C(=O)OCc1ccccc1` (stereo partly drawn) [Example 19, 2-Chloro-9-(2′-Deoxy-2′-fluoro-β-D-arabinofuranosyl)adenine-5′-O-[1-5,6,7,8-tetrahydro-1-naphthyl(benzoxy-L-alaninyl)] Diphosphate Triethylammonium Salt], the inhibition at 198 µM with OVCAR 3 was determined as 51%; in the assay with RL, 57%; in the assay with HL-60, 95%; in the assay with MOLT-4, 90%; with MCF-7 it was 47%; with K562 it was 37%. Also, the inhibition at 198 µM in the assay on RPMI-8226 is 79%; with HepG2 it was 51%; in the assay on KG-1, 92%; in the assay on HT29 it was 68%; in the assay on CCRF-CEM, 99%. The half-maximal effective concentration (EC50) with OVCAR 3 is more than 10000 nM; in the assay with RL, 200 to 1000 nM; in the assay with HL-60, less than 200 nM; in the assay with MOLT-4 it was less than 200 nM; in the assay on K562 it was more than 10000 nM; in the assay with RPMI-8226 it was more than 10000 nM. Further, the 50% effective concentration (EC50) with HepG2 is 200 to 1000 nM; in the assay on KG-1 it was less than 200 nM; in the assay on HT29, 200 to 1000 nM; with CCRF-CEM, less than 200 nM.
With `C[C@H](NP(=O)(Oc1cccc2ccccc12)OP(=O)(O)OC[C@H]1O[C@@H](n2cnc3c(N)nc(Cl)nc32)[C@H](F)C1O)C(=O)OCc1ccccc1` (stereo partly drawn) [Example 17, 2-Chloro-9-(2′-Deoxy-2′-fluoro-β-D-arabinofuranosyl)adenine-5′-O-[1-1-naphthyl(benzoxy-L-alaninyl)] Diphosphate Triethylammonium Salt], the inhibition at 198 µM with OVCAR 3 was 47%; with RL, 48%; in the assay on HL-60, 96%; in the assay on MOLT-4, 88%; with MCF-7, 46%; with K562, 37%. Besides, the inhibition at 198 µM in the assay on RPMI-8226 amounted to 82%; in the assay on HepG2, 52%; in the assay on KG-1 it was 92%; with HT29, 69%; with CCRF-CEM it was 99%. Further, the half-maximal effective concentration (EC50) was more than 10000 nM in the assay with OVCAR 3; less than 200 nM with HL-60; less than 200 nM in the assay on MOLT-4; more than 10000 nM with K562; more than 10000 nM in the assay with RPMI-8226; 200 to 1000 nM with HepG2. The EC50 with KG-1 was less than 200 nM; in the assay on HT29, 200 to 1000 nM; in the assay with CCRF-CEM, less than 200 nM.
`C[C@H](NP(=O)(Oc1cccc2ccccc12)OP(=O)(O)OC[C@H]1O[C@@H](n2cnc3c(N)nc(Cl)nc32)[C@H](F)C1O)C(=O)OCC(C)(C)C` (stereo partly drawn) [Example 13, 2-Chloro-9-(2′-Deoxy-2′-fluoro-β-D-arabinofuranosyl)adenine-5′-O-[1-naphthyl(neopentoxy-L-alaninyl)] Diphosphate Triethylammonium Salt]: the inhibition at 198 µM was determined as 80% in the assay with OVCAR 3; 48% with RL; 96% in the assay on HL-60; 89% with MOLT-4; 49% with MCF-7; 44% in the assay on K562. Besides, the inhibition at 198 µM in the assay with RPMI-8226 came out at 88%; with HepG2, 49%; in the assay with KG-1, 93%; in the assay on HT29, 68%; in the assay with CCRF-CEM it was 99%. Besides, the EC50 with OVCAR 3 was more than 10000 nM; in the assay with HL-60, less than 200 nM; in the assay on MOLT-4, less than 200 nM; in the assay on K562, more than 10000 nM; in the assay on RPMI-8226, more than 10000 nM; with KG-1 it was less than 200 nM. In addition, the 50% effective concentration (EC50) in the assay on HT29 is 200 to 1000 nM; with CCRF-CEM it was less than 200 nM.
`CC(C)(NP(=O)(Oc1cccc2ccccc12)OP(=O)(O)OC[C@H]1O[C@@H](n2cnc3c(N)nc(Cl)nc32)[C@H](F)C1O)C(=O)OCc1ccccc1` (stereo partly drawn) [Example 11, 2-Chloro-9-(2′-Deoxy-2′-fluoro-β-D-arabinofuranosyl)adenine-5′-O-[1-naphthyl(benzoxy-dimethylglycinyl)] Diphosphate Triethylammonium Salt]: the inhibition at 198 µM in the assay with OVCAR 3 was found to be 70%; in the assay with RL, 47%; in the assay with HL-60, 96%; with MOLT-4 it was 91%; in the assay with MCF-7, 57%; in the assay with K562 it was 50%. Also, the inhibition at 198 µM with RPMI-8226 was 81%; in the assay with HepG2 it was 58%; with KG-1 it was 92%; in the assay with HT29, 69%; in the assay with CCRF-CEM it was 99%. The 50% effective concentration (EC50) in the assay with OVCAR 3 is more than 10000 nM; with HL-60, less than 200 nM; with MOLT-4, less than 200 nM; in the assay on MCF-7 (Table 4 classes, read-out: Ab EC50) it was more than 10000 nM; in the assay on K562 it was more than 10000 nM; in the assay on RPMI-8226, more than 10000 nM. The EC50 was 1000 to 5000 nM in the assay with HepG2, less than 200 nM in the assay on KG-1, 200 to 1000 nM with HT29 and less than 200 nM in the assay with CCRF-CEM.
Regarding `CCOP(=O)(N[C@@H](C)C(=O)OCc1ccccc1)OP(=O)(O)OC[C@H]1O[C@@H](n2cnc3c(N)nc(Cl)nc32)[C@H](F)C1O` (stereo partly drawn) [Example 20, 2-Chloro-9-(2′-Deoxy-2′-fluoro-β-D-arabinofuranosyl)adenine-5′-O-[1-ethyl(benzoxy-L-alaninyl)] Diphosphate Triethylammonium Salt], the inhibition at 198 µM is 49% with OVCAR 3; 69% in the assay on RL; 96% with HL-60; 89% with MOLT-4; 48% in the assay on MCF-7; 35% in the assay with K562. Besides, the inhibition at 198 µM with RPMI-8226 is 80%; in the assay on HepG2, 54%; with KG-1, 92%; with HT29, 69%; in the assay on CCRF-CEM it was 99%. Also, the EC50 in the assay with OVCAR 3 was more than 10000 nM; in the assay with RL, 200 to 1000 nM; in the assay with HL-60, less than 200 nM; with MOLT-4, less than 200 nM; in the assay with K562, more than 10000 nM; with RPMI-8226 it was more than 10000 nM. For the same molecule, the EC50 in the assay on HepG2 was 200 to 1000 nM; in the assay on KG-1 it was less than 200 nM; with HT29, 200 to 1000 nM; with CCRF-CEM, less than 200 nM.
